The target in assay [1] is T1, GST-BIR3 fusion containing amino acids 259-364 from CIAP1 (Homo sapiens, UniProt Q13490).
T1 construct: a GST-BIR3 fusion containing amino acids 259-364 from CIAP1 was used
Kind of assay: CIAP1 BIR3 Smac Elisa. In kind it is binding. Conditions: concentration which displaces half of GST-BIR3 signal, IAP not given. The protocol: (§1) In order to measure the ability of the inventive compounds to bind the BIR3 peptide binding pocket, a solution phase assay on the FMAT or ELISA technology platform is utilized.
(§2) Compounds are incubated with GST-BIR3 fusion protein and biotinylated SMAC peptide (AVPFAQK) in stretavidin-coated 96-well plates. For XIAP BIR3 Smac Elisa, a GST-BIR3 fusion containing amino acids 248-358 from XIAP was used. For CIAP1 BIR3 Smac Elisa, a GST-BIR3 fusion containing amino acids 259-364 from CIAP1 was used. Following a 30-minute incubation, wells are extensively washed. The remaining GST-BIR3 fusion protein is monitored by ELISA assay involving first, incubation with goat anti-GST antibodies followed by washing and incubation with alkaline phosphatase conjugated anti-goat antibodies. Signal is amplified using Attophos (Promega) and read with Cytoflour Ex 450 nm/40 and Em 580 nm. IC50s correspond to concentration of compound which displaces half of GST-BIR3 signal. The IC50 for non-biotinylated Smac is 400 nM.

The target in assay [2] is T2, GST-BIR3 fusion containing amino acids 248-358 from XIAP (Homo sapiens, UniProt P98170).
T2 construct: a GST-BIR3 fusion containing amino acids 248-358 from XIAP was used
Kind of assay: XIAP BIR3 Smac Elisa. To be noted: concentration which displaces half of GST-BIR3 signal, IAP not given. The format is binding. The protocol:
as §1, §2

The subject of assay [3] is GST-BIR3 fusion protein (BIR3 peptide binding pocket). Briefly: FMAT solution phase assay: competition of GST-BIR3 off Smac peptide beads. As to the method: as §1
Biotinylated Smac 7-mer peptide (AVPIAQK, lysine ε-amino group is biotinylated) is immobilized on streptavidin coated beads. GST-BIR3 fusion protein is precipitated with FMAT beads and is detected using fluorescent tagged anti-GST antibodies. […] The IC50 for non-biotinylated Smac is 400 nM.

Residues, ends and D or L forms follow the SMILES beside them.

T1 sequence (Q13490 259-364): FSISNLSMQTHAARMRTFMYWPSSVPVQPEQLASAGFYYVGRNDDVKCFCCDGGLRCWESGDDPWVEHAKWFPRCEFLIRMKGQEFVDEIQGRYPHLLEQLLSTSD
T2 sequence (P98170 248-358): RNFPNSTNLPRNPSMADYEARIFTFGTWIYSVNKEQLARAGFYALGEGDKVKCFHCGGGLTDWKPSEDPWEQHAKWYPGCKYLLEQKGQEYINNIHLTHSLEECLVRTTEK

The IC50 is the point on the concentration scale where inhibition reaches its midpoint. A higher IC50 goes with a need for much substance. For the compound `CC[C@H](C)[C@H](NC(=O)[C@@H]1CCCN1C(=O)[C@@H](NC(=O)[C@H](C)N)C(C)C)C(=O)N[C@@H](C)C(=O)N[C@@H](CCC(N)=O)C(=O)N[C@@H](CCCCN)C(=O)O` [non-biotinylated Smac] (H-AVPIAQK-OH; N-terminus and C-terminus assumed), the IC50 in assay [1] was determined as 400 nM; in assay [2] it was 400 nM; in assay [3] (FMAT, displacement of GST-BIR3 from biotinylated Smac 7-mer peptide (AVPIAQK) beads) it was 400 nM. In addition, in assay [3] (FIG. 2), the “competing GST-BIR3 off the FMAT beads” value is recorded as “highly effective”.

Values taken from US7989441B2, “Organic compounds” (Novartis AG, priority 2005, dated 2011).
